This is an account of results in PMC9181126, “Design, Synthesis, Molecular Docking Analysis and Biological Evaluations of 4-[(Quinolin-4-yl)amino]benzamide Derivatives as Novel Anti-Influenza Virus Agents” (International Journal of Molecular Sciences, 2022).

By IC50 is commonly meant the concentration that inhibits the measured activity by half. Read a low IC50 as inhibition by little substance. In general, CC50 refers to the concentration at which the toxic effect on the cells reaches its halfway point.

The subject of one data set is A/PR/8 (H1N1). The data set is described as follows: Plaque inhibition assay in MDCK cells. Format: cell-based. To be noted: Influenza A virus.
The target of data set [1] is ribonucleoprotein (RNP) of influenza virus (Influenza A virus, UniProt P15659). The data set is described as follows: cell-based. To be noted: HEK-293T; concentration 100 µM; read-out: RNP Reconstitution Assay Inhibition Rate.
The test system of data set [2] is influenza virus A/WSN/33 (H1N1). The data set is described as follows: Plaque inhibition assay in MDCK cells. Format: cell-based.
For data set [3] the test system is unchanged. In words: microbe, parasite or virus in culture. Format: cell-based. To be noted: MDCK, 72 h.
Data set [4] is described as follows: in vitro. Format: cell-based, canine. To be noted: dog. Put shortly: (§1)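 Cells were seeded and compound medium added after 48 h, then incubated 72 h at 37 °C, 5% CO2. Viability was measured by MTT (4 h), then solubilization and absorbance at 620 nm after a further 3 h. DMSO-only wells were taken as 100% viable.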
The next data set concerns MDCK cells. In words: in vitro. Format: cell-based, canine. To be noted: dog, 72 h. Put shortly:
as §1

The test system of another data set is A/HK/68 (H3N2). In words: Plaque inhibition assay in MDCK cells. Format: cell-based. To be noted: Influenza A virus.
For a further data set, the system named is influenza B virus. In words: Plaque inhibition assay in MDCK cells. Format: cell-based.
A further data set relates to HEK293T cells. The data set is described as follows: in vitro. Format: cell-based. To be noted: human, 72 h. Put shortly:
as §1

Data set [5] is described as follows: in vitro. Format: cell-based. To be noted: human. Put shortly: as §1
The test system of another data set is A/WSN/33, H1N1. Details: method as in PMID 25333287. To be noted: cited from earlier work.
Setting [6] is: H1N1|WSN, read-out: Antiviral activity in CPE assay.

As to `COc1ccccc1OCCNC(=O)c1ccc(Nc2ccnc3cc(C(F)(F)F)ccc23)cc1` [Compound G07, N-[2-(2-Methoxyphenoxy)ethyl]-4-{[7-(trifluoromethyl)quinolin-4-yl]amino}benzamide], the IC50 was 11.4 ± 2.38 µM in the data set with A/PR/8 (H1N1), 0.23 ± 0.15 µM in data set [2] (MDCK cells), 7.51 ± 1.76 µM in the data set on A/HK/68 (H3N2) and 11 ± 1.16 µM with influenza B virus. For the same molecule, the inhibition at 100 µM stood at 80.7% in data set [1]; 95.9% in data set [2] (MDCK, concentration 100 µM, read-out: Plaque Inhibition Assay (A/WSN/33, H1N1) Inhibition Rate); 112 ± 4.3% in data set [3] (setting [6]). For the same molecule, in data set [3] (setting [6]), the inhibition at 12.5 µM came out at 61.4 ± 6.86%. Moreover, in data set [3] (setting [6]), the inhibition at 25 µM turned out to be 78.2 ± 8.28%. Also, the inhibition at 50 µM in [3] (setting [6]) is 107 ± 2.43%. In addition, the EC50 in data set [3] (read-out: Cytopathic Effect Assay (A/WSN/33, H1N1) EC50) was determined as 11.4 ± 1.89 µM. The CC50 at 72 h in “in vitro [4]” and in “in vitro [5]” was above 100 µM in each case. Besides, the “MDCK cells survival rate” value was 140.55±9.82% with MDCK cells (12.5 µmol·L−1), 115.87±11.06% in the data set with MDCK cells (25 µmol·L−1), 256.24±17.89% in the data set on MDCK cells (50 µmol·L−1) and 115.75±5.12% with MDCK cells (100 µmol·L−1). Further, the “HEK293T cells survival rate” value turned out to be 106.60±2.14% in the data set on HEK293T cells (3.125 µmol·L−1); 97.91±1.23% with HEK293T cells (6.25 µmol·L−1); 91.58±3.34% in the data set with HEK293T cells (12.5 µmol·L−1); 87.01±2.19% with HEK293T cells (25 µmol·L−1); 90.17±2.90% in the data set with HEK293T cells (50 µmol·L−1); 81.39±7.21% in the data set with HEK293T cells (100 µmol·L−1).

Turning to `CCN(CC)Cc1cc(Nc2ccnc3cc(Cl)ccc23)ccc1O` [amodiaquine], the EC50 in the data set with A/WSN/33, H1N1 is 6.3 µM.
